Reference: patent publication US4755509A, “Heterocyclic aldose reductase inhibitors and methods of using them” (Carbipem, priority 1984, dated 1988)
Counter-ions that a name gives are not always drawn.

Target: T1, aldose reductase (Rattus norvegicus, UniProt P07943)
T1 construct: rat lens homogenate used as a source of enzyme; from tissue; host or cells: rat lens homogenate
Experiment: in vitro inhibition of aldose reductase from rat lens homogenate (DL-glyceraldehyde substrate, NADPH, spectrophotometry at 340 nm)
Type: biochemical
Details: for inhibition at 100 µM: concentration 10^-4 mol/liter; for inhibition at 10 µM: concentration 10^-5 mol/liter; for inhibition at 1 µM: concentration 10^-6 mol/liter; for inhibition at 0.1 µM: concentration 10^-7 mol/liter; for inhibition at 0.01 µM: concentration 10^-8 mol/liter; for IC50: n = average of 3 determinations (Example 132: average of 2 determinations)
Experimental: The inhibitory activity on aldose reductase is evaluated in vitro starting from a rat lens homogenate used as a source of enzyme. The substrate used is DL-glyceraldehyde, which is converted by aldose reductase to glycerol in the presence of NADPH (*). This reaction is followed by spectrophotometry at 340 nm in the absence and in the presence of the inhibitors to be tested, the variation in optical density being proportional to the oxidation of the reduced coenzyme.
The results are shown in Table I below and represent, for different examples, the percentage inhibition of the enzymatic activity, relative to the control activity, as a function of the different concentrations (mol.l^-1) used.

[1] = read-out: Inhibition relative to the control activity, %

Row | SMILES | inhibition at 100 µM [1] | inhibition at 10 µM [1] | inhibition at 1 µM [1] | inhibition at 0.1 µM [1] | inhibition at 0.01 µM [1] | inhibition at 0.001 µM (concentration 10^-9 mol/liter, read-out: Inhibition relative to the control activity, %) | IC50
1 | O=C(O)CN1C(=O)CSc2ncccc21 [Example 110, Pyrido[2,3-b]thiazin-2(3H)-one-1-acetic acid] | 95% | 82% | 37% | 11% | 4% | 9% | 
2 | O=C(O)CN1C(=O)CSc2nc(Cl)ccc21 [Example 111, 6-Chloropyrido[2,3-b]thiazin-2(3H)-one-1-acetic acid] | 96% | 80% |  | 5% |  |  | 
3 | O=C(O)CN1C(=O)CNc2ncccc21 [Example 114, Pyrido[2,3-b][1,4]pyrazin-2(3H)-one-1-acetic acid hydrochloride] | 95% | 86% | 6% |  |  |  | 
4 | O=C(O)CN1C(=O)CSc2ccc(C(F)(F)F)cc21 [Example 115, 6-Trifluoromethyl-2H-1,4-benzothiazin-3-one-4-acetic acid] | 90% | 57% |  | 3% |  |  | 
5 | O=C(O)CN1C(=O)CSc2cc(F)ccc21 [Example 116, 7-Fluoro-2H-1,4-benzothiazin-3-one-4-acetic acid] | 100% | 95% | 25% |  |  |  | 
6 | O=C(O)CN1C(=S)CSc2cc(F)ccc21 [Example 117, 7-Fluoro-2H-1,4-benzothiazine-3-thione-4-acetic acid] | 100% | 100% |  | 65% | 5% |  | 82 ± 1 nM
7 | O=C(O)CN1C(=O)CSc2ccc(F)cc21 [Example 118, 6-Fluoro-2H-1,4-benzothiazin-3-one-4-acetic acid] | 98% | 91% | 10% |  |  |  | 
8 | O=C(O)CN1C(=S)CSc2ccc(F)cc21 [Example 119, 6-Fluoro-2H-1,4-benzothiazine-3-thione-4-acetic acid] | 100% | 98% |  | 67% | 22% |  | 46 ± 2 nM
9 | O=C(O)CN1C(=O)CSc2cc(Cl)ccc21 [Example 121, 7-Chloro-2H-1,4-benzothiazin-3-one-4-acetic acid] | 97% | 92% |  | 16% |  |  | 
10 | O=C(O)CN1C(=O)CSc2cc(Cl)c(C(F)(F)F)cc21 [Example 123, 6-Trifluoromethyl-7-chloro-2H-1,4-benzothiazin-3-one-4-acetic acid] | 97% | 81% |  | 0% |  |  | 
11 | O=C(O)CN1C(=O)CSc2ccccc21 [Example 124, 2H-1,4-Benzothiazin-3-one-4-acetic acid] | 97% | 86% |  | 10% |  |  | 
12 | CC1Sc2ccccc2N(CC(=O)O)C1=O (stereo not shown) [Example 125, 2-Methyl-2H-1,4-benzothiazin-3-one-4-acetic acid] | 99% | 91% |  | 12% |  |  | 
13 | O=C(O)CN1C(=S)CSc2cc(Cl)ccc21 [Example 127, 7-Chloro-2H-1,4-benzothiazine-3-thione-4-acetic acid] |  | 98% |  | 93% | 28% |  | 
14 | O=C(O)CN1C(=S)CSc2cc(Cl)c(C(F)(F)F)cc21 [Example 129, 6-Trifluoromethyl-7-chloro-2H-1,4-benzothiazine-3-thione-4-acetic acid] |  | 74% |  |  | 5% |  | 
15 | O=C(O)CN1C(=S)C(c2ccccc2)Sc2ccccc21 (stereo not shown) [Example 130, 2-Phenyl-2H-1,4-benzothiazine-3-thione-4-acetic acid] |  | 99% |  | 95% | 17% |  | 
16 | CC1Sc2ccccc2N(CC(=O)O)C1=S (stereo not shown) [Example 132, 2-Methyl-2H-1,4-benzothiazine-3-thione-4-acetic acid] |  | 95% |  | 92% | 16% |  | 42 ± 13 nM
17 | O=C(O)CN1C(=S)CSc2ccccc21 [Example 133, 2H-1,4-Benzothiazine-3-thione-4-acetic acid] |  | 98% |  | 69% | 18% |  | 54 ± 5 nM
18 | CC1Sc2ccc(F)cc2N(CC(=O)O)C1=O (stereo not shown) [Example 136, 6-Fluoro-2-methyl-2H-1,4-benzothiazin-3-one-4-acetic acid] |  | 95% |  | 30% | 11% |  | 
19 | CC1Sc2ccc(F)cc2N(CC(=O)O)C1=S (stereo not shown) [Example 137, 6-Fluoro-2-methyl-2H-1,4-benzothiazine-3-thione-4-acetic acid] |  | 94% |  | 80% | 13% |  | 
20 | CC1(c2ccccn2)Sc2ccccc2N(CC(=O)O)C1=O (stereo not shown) [Example 151, 2-Methyl-2-(pyridin-2'-yl)-2H-1,4-benzothiazin-3-one-4-acetic acid] | 96% | 73% |  | 16% |  |  | 
21 | O=C(O)CN1C(=S)COc2ccc(F)cc21 [Example 152, 6-Fluoro-2H-1,4-benzoxazine-3-thione-4-acetic acid] | 100% | 99% |  | 54% |  |  | 86 ± 4 nM
22 | O=C(O)CN1C(=S)CCc2cc(Cl)ccc21 [Example 154, 6-Chloro-3,4-dihydroquinoline-2-thione-1-acetic acid] |  | 94% |  | 56% | 29% |  | 91 ± 15 nM
